In US5541163A, “Renin inhibiting N-(2-amino-2-oxoethyl)butanediamide derivatives” (Bio-Mega/Boehringer Ingelheim Research Inc., priority 1993, dated 1996):

Biological target: T1, human renin (Homo sapiens, UniProt P00797)
T1 construct: A human plasma pool is used as the source of both the substrate (angiotensinogen) and the enzyme (renin); from tissue; host or cells: human plasma pool
T1 sequence (P00797 67-406): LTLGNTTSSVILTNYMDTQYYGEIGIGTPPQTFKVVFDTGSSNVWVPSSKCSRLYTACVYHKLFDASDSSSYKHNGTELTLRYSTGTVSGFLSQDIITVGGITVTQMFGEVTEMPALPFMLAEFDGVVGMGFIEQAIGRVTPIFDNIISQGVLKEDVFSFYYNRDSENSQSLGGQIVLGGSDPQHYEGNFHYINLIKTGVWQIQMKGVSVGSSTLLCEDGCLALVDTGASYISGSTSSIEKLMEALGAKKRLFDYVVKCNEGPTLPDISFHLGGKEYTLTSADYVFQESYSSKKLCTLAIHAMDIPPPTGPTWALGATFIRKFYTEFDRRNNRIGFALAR
Assay: Plasma renin assay (inhibition of human renin, angiotensin I by RIA)
Type: biochemical
Details: human plasma pool, pH 6.0, 2 h incubation at 37°
Procedure: The assay is performed as follows: The test compound (i.e. the inhibitor) is dissolved in dimethylsulfoxide (1 mM stock solution) and diluted with an aqueous buffer solution of 270 mM 2-(N-morpholino)ethanesulfonic acid and 1% human serum albumin (pH 5.85, also containing dimercaprol and 8-hydroxyquinoline sulfate in accordance with the instructions of the RIA kit noted below) to give an assay mixture in which the final dimethylsulfoxide content is 1% (v/v).
A human plasma pool is used as the source of both the substrate (angiotensinogen) and the enzyme (renin). The reaction is initiated by the addition of 50 μL of human plasma pool to 50 μL of various concentrations of inhibitor in the 1% dimethylsulfoxide assay buffer. The plasma renin activity is measured by the amount of angiotensin I generated at pH 6.0 following a 2 h incubation at 37°.
Quantitation of angiotensin I is performed by radioimmunoassay (RIA kit from New England Nuclear-Dupont, Mississauga, ON, Canada). The enzymatic activity of renin is expressed in ng of angiotensin I generated (/mL/2 h). The extent of inhibition of the reaction is determined from the amount of angiotensin I generated in reference to a control prepared without inhibitor. Nonlinear regression analysis is used to calculate the IC50 values, i.e. the molar concentration of the test compound required to cause a 50% inhibition of the enzyme activity.

Row | SMILES | IC50 [nM]
1 | CC(C)C[C@H](O)[C@H](O)[C@H](CC1CCCCC1)NC(=O)[C@@H](CC(=O)N(CC(=O)N(C)C)[C@@H](C)c1ccccc1)Cc1c[nH]cn1 [Compound 27, N^4-[2-(dimethylamino)-2-oxoethyl]-N^4-(1(S)-phenylethyl]-N^1-[1(S)-(cyclohexylmethyl)-2(R),3(S)-dihydroxy-5-methylhexyl]-2(R)-(1H-imidazol-4-ylmethyl)butanediamide] | 6
2 | CNC(=O)CN(Cc1ccccc1)C(=O)C[C@@H](CC1CC1)C(=O)N[C@@H](CC1CCCCC1)[C@@H](O)[C@@H](O)CC(C)C [Compound 6, N^4-benzyl-N^4-[2-(methylamino)-2-oxoethyl]-N^1-[1(S)-(cyclohexylmethyl)-2(R),3(S)-dihydroxy-5-methylhexyl]-2(R)-(cyclopropylmethyl)butanediamide] | 350
3 | Cc1nc(C[C@H](CC(=O)N(CC(=O)N(C)C)CC2CCCCC2)C(=O)N[C@@H](CC2CCCCC2)[C@@H](O)[C@@H](O)CC(C)C)cs1 [Compound 47, N^4-(cyclohexylmethyl)-N^4-[2-(dimethylamino)-2-oxoethyl]-N^1-[1(S)-(cyclohexylmethyl)-2(R),3(S)-dihydroxy-5-methylhexyl]-2(R)-[(2-methyl-4-thiazolyl)methyl]butanediamide] | 18.5
4 | CC(C)C[C@H](O)[C@H](O)[C@H](CC1CCCCC1)NC(=O)[C@@H](CC(=O)N(CC(=O)N(C)CCc1ccccn1)Cc1ccccc1)Cc1nccs1 [Compound 41, N^4-benzyl-N^4 -{2-{methyl[2-(2-pyridinyl)ethyl]amino}-2-oxoethyl}-N^1-[1(S)-(cyclohexylmethyl)-2(R),3(S)-dihydroxy-5-methylhexyl]-2(S)-(2-thiazolylmethyl)butanediamide] | 3.5
5 | CC(C)C[C@H](O)[C@H](O)[C@H](CC1CCCCC1)NC(=O)[C@@H](CC(=O)N(CC(=O)N(C)CCc1ccccn1)Cc1ccccc1)Cc1cccs1 [Compound 34, N^4-benzyl-N^4 -{2-{methyl[2-(2-pyridinyl)ethyl]amino}-2-oxoethyl}-N^1-[1(S)-(cyclohexylmethyl)-2(R),3(S)-dihydroxy-5-methylhexyl]-2(S)-(2-thienylmethyl)butanediamide] | 13
6 | CC(C)C[C@H](O)[C@H](O)[C@H](CC1CCCCC1)NC(=O)[C@@H](CC(=O)N(CC(=O)N(C)C)Cc1ccccc1)CC1CC1 [Compound 2, N^4-benzyl-N^4-[2-(dimethylamino)-2-oxoethyl]-N^1-[1(S)-(cyclohexylmethyl)-2(R),3(S)-dihydroxy-5-methylhexyl]-2(R)-(cyclopropylmethyl)butanediamide] | 56
7 | CC(C)C[C@H](O)[C@H](O)[C@H](CC1CCCCC1)NC(=O)[C@@H](CC(=O)N(CC(=O)N(C)CCN(C)C)[C@@H](C)c1ccccc1)CC1CC1 [Compound 23, N^4 -{2-{[2-(dimethylamino)ethyl]methylamino}-2-oxoethyl}-N^4-[1(S)-phenylethyl]-N^1-[1(S)-(cyclohexylmethyl)-2(R),3(S)-dihydroxy-5-methylhexyl]-2(R)-(cyclopropylmethyl)-butanediamide] | 26
8 | CC(C)C[C@H](O)[C@H](O)[C@H](CC1CCCCC1)NC(=O)[C@@H](CC(=O)N(CC(=O)N(C)C)C[C@@H](C)c1ccccc1)Cc1nccs1 [Compound 40, N^4-[2-(dimethylamino)-2-oxoethyl]-N^4-[2 (S)-phenylpropyl]-N^1-[1(S)-(cyclohexylmethyl)-2(R),3(S)-dihydroxy-5-methylhexyl]-2(S)-(2-thiazolylmethyl)butanediamide] | 6.7

More lines, now with the values ahead:

Row | IC50 [nM] | SMILES
9 | 4 | CC(C)C[C@H](O)[C@H](O)[C@H](CC1CCCCC1)NC(=O)[C@@H](CC(=O)N(CC(=O)N(C)C)[C@@H](C)c1ccccc1)Cc1nccs1 [Compound 54, N^4-[2-(dimethylamino)-2-oxoethyl]-N^4-[1(S)-phenylethyl]-N^1-[1(S)-(cyclohexylmethyl)-2(R),3(S)-dihydroxy-5-methylhexyl]-2(S)-(2-thiazolylmethyl)butanediamide]
10 | 1 | CC(C)C[C@H](O)[C@H](O)[C@H](CC1CCCCC1)NC(=O)[C@@H](CC(=O)N(CC(=O)N(C)CCc1ccccn1)CC1CCCC1)Cc1csc(N)n1 [Compound 71, N^4-(cyclopentylmethyl)-N^4 -{2-{methyl[2-(2-pyridinyl)ethyl]-amino}-2-oxoethyl]-N^1-[1(S)-(cyclohexylmethyl)-2(R),3(S)-dihydroxy-5-methylhexyl]-2(R)-[(2-amino-4-thiazolyl)methyl]butanediamide]
11 | 3 | Cc1cc(C)cc(CN(CC(=O)N(C)C)C(=O)C[C@@H](Cc2csc(N)n2)C(=O)N[C@@H](CC2CCCCC2)[C@@H](O)[C@@H](O)CC(C)C)c1 [Compound 73, N^4-[2-(dimethylamino)-2-oxoethyl]-N^4-[(3,5-dimethylphenyl)methyl]-N^1-[1(S)-(cyclohexylmethyl)-2(R),3(S)-dihydroxy-5-methylhexyl]-2(R)-[(2-amino-4-thiazolyl)methyl]butanediamide]
12 | 4 | CC(C)C[C@H](O)[C@H](O)[C@H](CC1CCCCC1)NC(=O)[C@@H](CC(=O)N(CC(=O)N(C)C)CC1CCCCC1)Cc1ccccn1 [Compound 68, N^4-(cyclohexylmethyl)-N^4-[2-(dimethylamino)-2-oxoethyl]-N^1-[1(S)-(cyclohexylmethyl)-2(R),3(S)-dihydroxy-5-methylhexyl]-2(R)-(2-pyridinylmethyl)butanediamide]
13 | 5 | CCCC(CCC)CN(CC(=O)N(C)CCc1ccccn1)C(=O)C[C@@H](Cc1csc(N)n1)C(=O)N[C@@H](CC1CCCCC1)[C@@H](O)[C@@H](O)CC(C)C [Compound 92, N^4 -{2-{methyl[2-(2-pyridinyl)ethyl]-amino}-2-oxoethyl}-N^4-(2-propylpentyl)-N^1-[1(S)-(cyclohexylmethyl)-2(R),3(S)-dihydroxy-5-methylhexyl]-2(R)-[(2-amino-4-thiazolyl)methyl]-butanediamide]
14 | 10 | CC(C)C[C@H](O)[C@H](O)[C@H](CC1CCCCC1)NC(=O)[C@@H](CC(=O)N(CC(=O)N1CCOCC1)CC1CCCCC1)Cc1cccnc1 [Compound 59, N^4-(cyclohexylmethyl)-N^4-(2-morpholino-2-oxoethyl)-N^1-[1(S)-(cyclohexylmethyl)-2(R),3(S)-dihydroxy-5-methylhexyl]-2(R)-(3-pyridinylmethyl)butanediamide]
15 | 2 | CC(C)C[C@H](O)[C@H](O)[C@H](CC1CCCCC1)NC(=O)[C@@H](CC(=O)N(CC(=O)N(C)CCc1ccccn1)Cc1cccs1)Cc1csc(N)n1 [Compound 72, N^4 -{2-{methyl[2-(2-pyridinyl)ethyl]-amino}-2-oxoethyl}-N^4-(2-thienylmethyl)-N^1-[1(S)-(cyclohexylmethyl)-2(R),3(S)-dihydroxy-5-methylhexyl]-2(R)-[(2-amino-4-thiazolyl)methyl]-butanediamide]
16 | 45 | CN(CCc1ccccn1)C(=O)CN(CC1CCCCC1)C(=O)C[C@@H](Cc1csc(N)n1)C(=O)N[C@@H](CC1CCCCC1)[C@@H](O)CSc1nnnn1C [Compound 65, N^4-(cyclohexylmethyl)-N^4 -{2-{methyl-[2-(2-pyridinyl)ethyl]amino}-2-oxoethyl}-N^1 -{1(S)-(cyclohexylmethyl)-2(R)-hydroxy-3-[(l-methyl-1H-tetrazol-5-yl)thio]propyl}-2(R)-[(2-amino-4-thiazolyl)methyl]-butanediamide]
17 | 2 | CC(C)C[C@H](O)[C@H](O)[C@H](CC1CCCCC1)NC(=O)[C@@H](CC(=O)N(CC(=O)N(C)C)CC1CC2CCC1C2)Cc1cscn1 (mixture of isomers) [Compound 56, N^4 -{{1(S),2(R),4(S)-and 1(R),2(S),4(R)-{bicyclo[2.2.1]hept-2-yl}methyl}-N^4-[2-(dimethylamino)-2-oxoethyl]-N^1-[1(S)-(cyclohexylmethyl)-2(R),3(S)-dihydroxy-5-methylhexyl]-2(R)-(4-thiazolylmethyl)butanediamide]
18 | 8 | CCCC(CCC)N(CC(=O)N(C)CCc1ccccn1)C(=O)C[C@@H](Cc1csc(N)n1)C(=O)N[C@@H](CC1CCCCC1)[C@@H](O)[C@@H](O)CC(C)C [Compound 91]
19 | 10 | CC(C)C[C@H](O)[C@H](O)[C@H](CC1CCCCC1)NC(=O)[C@@H](CC(=O)N(CC(=O)N(C)C)CC1CCCCC1)Cc1cccnc1 [Compound 58, N^4-(cyclohexylmethyl)-N^4-[2-(dimethylamino)-2-oxoethyl]-N^1-[1(S)-(cyclohexylmethyl)-2(R),3(S)-dihydroxy-5-methylhexyl]-2(R)-(3-pyridinylmethyl)butanediamide]
